The source of these data is ChEMBL document CHEMBL1157539, “Thousands of chemical starting points for antimalarial lead identification” (Nature, 2010).

In this assay the test system is Plasmodium falciparum. As to the kind of experiment: GSK_TCMDC: Inhibition of Plasmodium falciparum 3D7 in whole erythrocytes, using parasite LDH activity as an index of growth. It counts as functional, organism-based. The conditions noted are these: Plasmodium falciparum, 3D7.
Compound `COc1ccc(Nc2nc(N/N=C/c3cc(Br)ccc3O)nc(Nc3ccc([N+](=O)[O-])cc3)n2)cc1` showed an XC50 of 222 nM.
As for `CCNc1cc(C(=O)N[C@@H](Cc2ccccc2)[C@H](O)CN[C@H]2CCc3ccccc32)cc(N2CCCC2=O)c1`, the figure is 295 nM; as for `Cc1[nH]c(C)c(-c2ccc(Oc3ccc(F)cc3)cc2)c(=O)c1Br`, 54.9 nM; as for `COc1ccc(CN2CCC2=O)c(OC)c1`, 122 nM.
As for `CN1CCC(N2CCN(Cc3cccc(-c4ccc(-c5nc6ccccc6[nH]5)cc4)c3)CC2)CC1`, the figure is 156 nM; as for `Cn1nc(-c2cccc(CNCc3ccccc3)c2)c2cnc(NC3CCCC3)nc21`, 1260 nM; as for `CN1CC=C(c2csc3ccc(NC(=O)Nc4ccc(-c5ccncc5)c5ccccc45)cc23)CC1`, 804 nM.
The same measure for `Cc1cccc2nc(-c3ccc(-c4cccc(CN5CCC(N)C5)c4)s3)[nH]c12` (stereo unspecified): 773 nM.
Turning to `CN(C)CCOc1cc(NC(=O)Nc2ccc(-c3ccncc3)c3ccccc23)ccc1I`, the XC50 turned out to be 777 nM.
Compound `O=C(CCCCCNC(=O)c1ccc(O)c(-c2cccc(C(F)(F)F)c2)c1)NCCN1CCCCC1` yielded an XC50 of 888 nM.
For `O=C(NC1CCCCCC1)[C@@H]1CCCN1C(=O)c1ccc(O)c(-c2ccc(Cl)c(Cl)c2)c1`, the XC50 came out at 345 nM.
`CC(C)CNCc1cccc(-c2cccc(CN(CCCN3CCN(C)CC3)C(=O)NC3CCCCC3)c2)c1` showed an XC50 of 761 nM.
In turn, `N#Cc1cccc(COC(=O)C2=C(COc3ccccc3Cl)NC(=O)NC2c2c[nH]c3cnccc23)c1` (stereo unspecified) came in with an XC50 of 792 nM.
`CCn1c(C)c(C)c2cc(C(=O)Nc3ccon3)ccc21` had an XC50 of 732 nM.
The compound `COc1ccc(CNCc2ccc(F)cc2)cc1-c1ccc(S(=O)(=O)NCCN2CCCC2)c(C)c1` showed an XC50 of 734 nM.
Compound `N=C(N)NN=Cc1ccccc1OCc1ccccc1Cl` returned an XC50 of 718 nM.
`COc1c(OC)c(OC)c2ccccc2c1CNCCCCCCNCc1c(OC)c(OC)c(OC)c2ccccc12` registered an XC50 of 759 nM.
In the case of `CCc1ccc(S(=O)(=O)Nc2ccc(CCN3CCC(N4CCCCC4)CC3)cc2)cc1`, the XC50 stood at 988 nM.
Turning to `Cc1cc(N2CCN(CC3CCCCC3)CC2)nc(Nc2ccc(Br)cc2)n1`, the XC50 is 1090 nM.
As to `O=C(NC1CC1)c1cnc(N2CCC(Oc3ccc(Cl)cc3)CC2)c(Cl)c1`, the XC50 was 1090 nM.
Regarding `COC(=O)c1cc(OC)c(OC)cc1NC(=O)NC12CC3CC(CC(C3)C1)C2`, the XC50 is 879 nM.
Take `Cc1cc(-c2cnc(N)c(-c3ccc(N4CCN(C)CC4)nc3)c2)cc(C)c1O`: the XC50 came to 1400 nM.
With `O=C1C(C2CCC(c3ccc(Cl)cc3)CC2)=C2OCC3COC2(O3)c2ccccc21` (stereo unspecified), the XC50 stood at 39 nM.
The compound `O=C(Cc1cccc(Cl)c1)Nc1cccc(-c2c[nH]c3nc(Nc4cccc(O)c4)ncc23)c1` showed an XC50 of 731 nM.
In turn, `CN(C)C(=O)C(CC(=O)NCc1ccccc1Cl)N(C)C.CN(C)C(=O)CC(C(=O)NCc1ccccc1Cl)N(C)C` (stereo unspecified) displayed an XC50 of 896 nM.
In turn, `NOCCCCOc1cc(Cl)c(Cl)cc1Cl` displayed an XC50 of 175 nM.
In turn, `Cc1ccc(CC(C)NCC(O)c2cccc(C#N)c2)cc1` (stereo unspecified) showed an XC50 of 944 nM.
In turn, `CCC(COCc1ccc(Cl)cc1)N(C)CCN(C)C(CC)COCc1ccc(Cl)cc1` (stereo unspecified) showed an XC50 of 1060 nM.
The same measure for `CC(C)OCCCNC(=O)c1nc(-c2cccc(C(F)(F)F)c2)sc1C(C)C`: 1160 nM.
With `CC(C)(C)c1ccc(N2C(N)=NC(N)=NC2(C)C)cc1`, the XC50 amounted to 26.7 nM.
`COC(=O)c1cccc(CNCc2cccc(-c3ccc(-c4nc5cccc(C)c5[nH]4)cc3)c2)c1`: the XC50 was found to be 322 nM.
As for `Cc1noc(C)c1-c1cccc(CNCc2ccc(-c3ccc(-c4nc5cc(F)ccc5[nH]4)s3)cc2)c1`, the figure is 423 nM; as for `N#Cc1ccc(N(CCOc2ccc(Cl)cc2)Cc2ccccc2C(F)(F)F)cc1C(F)(F)F`, 656 nM.
For `COc1ccc(NC(=O)C2CCN(CCCCCNC(=O)/C=C/c3ccc(Cl)c(Cl)c3)CC2)cc1`, the XC50 is 828 nM.
With `CCN1CCN(c2ccc(NC(=O)c3cc4c(C)nn(-c5ccccc5)c4s3)cc2C)CC1`, the XC50 came out at 757 nM.
Turning to `COc1ccc(-c2cccc(NC(=O)c3cccc(Cl)c3)c2)cc1CN(C)CCN(C)C`, the XC50 was determined as 813 nM.
In turn, `O=C(Cn1cc(C(F)(F)F)cc(Cl)c1=O)N1CCN(S(=O)(=O)c2ccc(Cl)cc2)CC1` displayed an XC50 of 897 nM.
In the case of `NC(=O)c1cc2nc(Nc3ccc(F)cc3)nc(NC3CCC3)c2[nH]1`, the XC50 was determined as 195 nM.
Consider `Nc1ncc(-c2ccccc2)cc1/C=C/c1cccnc1`, for which the XC50 was 1120 nM.
Consider `Cc1[nH]c2ccc(O)cc2c1C1CCN(CC2CCC(NC(=O)/C=C/c3ccc(Cl)c(Cl)c3)CC2)CC1` (stereo unspecified), for which the XC50 is 764 nM.
As to `CCCCCCC(C)(C)c1cc(O)c2c3c(c(=O)oc2c1)CCN(Cc1ccccc1)C3`, the XC50 is 217 nM.
As for `O=C(Nc1cccc2ccccc12)N1CCc2cc3nccc(N4CCN5CCC[C@H]5C4)c3cc21`, the figure is 889 nM.
Consider `O=C(Cc1cc(F)cc(F)c1)NC1CCN(c2ccnc3cc(Cl)ccc23)C1` (stereo unspecified), for which the XC50 was 250 nM.
Turning to `COC(=O)c1cccc(CNCc2cccc(-c3cccc(-c4nc5cc(F)ccc5[nH]4)c3)c2)c1`, the XC50 stood at 129 nM.
As for `O=c1cc(NCCCNCc2ccc3c(c2)OC(F)(F)O3)[nH]c2ccccc12`, the figure is 770 nM; as for `Nc1cc(C(F)(F)F)ccc1Cl`, 736 nM; as for `Cc1[nH]c2cc(Cl)ccc2c1C1=CCN(CCCCC2(C)C(=O)Nc3c(F)cccc32)CC1` (stereo unspecified), 843 nM.
`O=C(Nc1ccc(Cl)cc1)N[C@H]1CCN(CCCCCNC(=O)C2CC2c2ccc(Cl)c(Cl)c2)C1` (stereo partly specified) yielded an XC50 of 874 nM.
`CC1CN(c2cnn(Cc3cccc(NC(=O)Nc4ccc(-c5ccccc5)cc4)c3)c(=O)c2Cl)CC(C)N1` (stereo unspecified) came in with an XC50 of 340 nM.
`O=C(Nc1ccc(N2CCCN(Cc3cccc(F)c3)CC2)cc1)c1cccs1` gave an XC50 of 546 nM.
As for `COc1ccccc1N1CCN(Cc2cc(C(C)C)c(C)cc2O)CC1`, the figure is 572 nM; as for `CCOc1ccc(C(C)NC(=O)c2cc(Cl)ccc2OC)cc1OCC` (stereo unspecified), 971 nM; as for `O=C(c1cc(C(=O)Nc2ccccc2)c(=O)n(-c2ccccc2)c1)c1cc(Cl)ccc1O`, 390 nM.
`CCOC(=O)N1CCN(CCCNc2c3ccccc3nc3ccccc23)CC1`: the XC50 was 1010 nM.
As for `COc1ccc(NC(=O)[C@H](C)Nc2cc(C)nc(NCC3CCCCC3)n2)cc1`, the figure is 1280 nM; as for `CCCC(C)Nc1nc(C)cc(N[C@@H](CC(C)C)C(=O)NCCc2ccccc2)n1` (stereo partly specified), 1360 nM.
On to `O=C(c1cc(C(=O)NCc2ccc(Cl)cc2)c(=O)n(Cc2ccc(Cl)cc2)c1)c1cc(Cl)ccc1O`, for which the XC50 was 1400 nM.
As for `O=C(Nc1ccc(Cl)cc1)c1ccc(CN2CCCN(Cc3ccc(F)cc3)CC2)cc1`, the XC50 turned out to be 966 nM.
`CN(c1cc(NC(=O)c2ccc(F)cc2)ccn1)C1CCN(Cc2ccc(C#N)cc2)CC1` displayed an XC50 of 1510 nM.
Consider `O=C(Nc1cccc(CCNCc2ccccc2)c1)Nc1cccc2ccccc12`, for which the XC50 was 729 nM.
As for `CC1(C)NC(N)=NC(=N)N1OCCOc1cccc(C(F)(F)F)c1`, the XC50 was determined as 3.2 nM.
For `Cc1cc(-c2nc3ccc(C(=O)NCc4ccccc4)cc3n2C2CCN(C(=O)c3ccc(-c4ccccc4)cc3)CC2)ccn1`, the XC50 was 898 nM.
The same measure for `CCN(CC)/C(=N/C(=N)Nc1ccc(Cl)c(Cl)c1)NCCCCCCN/C(=N\C(=N)Nc1ccc(Cl)c(Cl)c1)N(CC)CC`: 761 nM; for `Cc1ccc2[nH]c(C3CCCNC3)c(-c3ccncc3)c2c1` (stereo unspecified): 1230 nM.
Consider `CC(C)(CNC(=O)C1CCN(Cc2ccoc2)CC1)c1nc(-c2ccc(Cl)c(O)c2)c(-c2ccncc2)[nH]1`, for which the XC50 was 866 nM.
As for `COc1cccc(OCC2CCCN(CCCCNC(=O)c3ccc(NC(=O)c4ccc(Cl)cc4)cc3)C2)c1` (stereo unspecified), the figure is 748 nM; as for `O=C(c1ccccc1F)N(Cc1ccc(Cl)cc1)c1ccccn1`, 1020 nM.
In turn, `CCCCCCCN(Cc1ccc(OC(C)(C)C(=O)OCC)cc1)C(=O)Nc1ccc(Cl)cc1OCC` displayed an XC50 of 817 nM.
The compound `Cn1nccc1C(=O)NCCNCc1ccc(-c2ccc(-c3nc4cc(C(F)(F)F)ccc4[nH]3)s2)cc1` had an XC50 of 186 nM.
Regarding `CCCc1cc(C(=O)N[C@@H](Cc2ccccc2)[C@H](O)CNC2CCOCC2)c(F)c(N2CCCCS2(=O)=O)c1`, the XC50 was determined as 166 nM.
With `Cc1cccc2nc(-c3ccc(-c4cccc(NC(=O)c5ccncc5)c4)cc3)[nH]c12`, the XC50 was determined as 839 nM.
For the compound `OCCCCCCNc1nc(NCc2ccccc2-c2ccc(C(F)(F)F)cc2)nc(N2CCNCC2)n1`, the XC50 was found to be 1440 nM.
On to `CN1CCN(CCCN(Cc2ccc(-c3ccc(CNCc4ccc5c(c4)OCO5)cc3)cc2)C(=O)Nc2ccccc2)CC1`, for which the XC50 was found to be 707 nM.
Compound `CCCCn1c(Sc2ccc(C#N)c([N+](=O)[O-])c2)nnc1-c1cccc(Cl)c1` showed an XC50 of 762 nM.
Turning to `CSc1nc2cc3c(cc2n1C(=O)c1ccc(C)cc1)OCCO3`, the XC50 came to 166 nM.
With `COc1ccc(CNCc2cccc(-c3ccc(-c4nc5cccc(C)c5[nH]4)s3)c2)cc1`, the XC50 is 263 nM.
The compound `CCCCCCn1ccc2c3c(N)nc(N)nc3ccc21` displayed an XC50 of 149 nM.
As for `Oc1ccccc1-c1nc2cccnc2n1CCc1cccc(C(F)(F)F)c1`, the figure is 1270 nM.
In turn, `COc1ccc(Cl)cc1-c1nc(C(=O)NCCN2CCCCC2)c(C(C)C)s1` showed an XC50 of 753 nM.
Take `Cc1ccc(C(=O)Nc2ccc(F)cc2)cc1-c1nc(NC2CC(C)(C)NC(C)(C)C2)nc2c1ccc(=O)n2-c1c(F)cccc1F`: the XC50 worked out at 684 nM.
The same measure for `Cn1cnc2c(Nc3ccncc3)nc(-c3ccc(OC(F)(F)F)cc3)nc21`: 1100 nM; for `CC(=O)Nc1nc(C(=O)Nc2ccc(-c3ccc(-c4nc5cc(F)ccc5[nH]4)cc3)cc2)cs1`: 460 nM.
Turning to `CCCC(C)NC(=O)c1cnn(-c2ccc(C(C)(C)C)cc2)c1OCc1ccc(Br)cc1` (stereo unspecified), the XC50 is 1060 nM.
Turning to `CC(=O)C1(c2ccccc2)CCN(CCC2(c3ccc(Cl)c(Cl)c3)CN(C(=O)c3cccc(Cl)c3)CCO2)CC1` (stereo unspecified), the XC50 came out at 854 nM.
`CN(C)Cc1ccc(-c2ccc3c(Nc4ccc(Oc5ccccn5)cc4)ccnc3c2)o1` displayed an XC50 of 159 nM.
As for `CCCC(=O)c1cnc2c(OCCCc3c[nH]cn3)cccc2c1Nc1c(C)cccc1C`, the XC50 is 338 nM.
